In US9845292B2 (Max-Planck-Gesellschaft zur Förderung der Wissenschaften …, priority 2013, dated 2017):
Read-outs that look alike come from different tables or passages of the source.

Columns and labels:
[1] = target: T1, FKBP52 (Homo sapiens, UniProt Q02790); experiment: Fluorescence polarization binding assay, FK1-domain of FKBP52WT with tracer F2 (selectivity FKBP51 vs. FKBP52); details: selectivity factor over FKBP52
T1 construct: Purified FK1-domains of FKBP51WT (4.5 nM) with F4 (3 nM), FKBP52WT (400 nM) with F2 (20 nM); implied by Ni-NTA purification) (N); made in house; host or cells: E. coli BL21(DE3)pLysS
T1 sequence (Q02790 50-138 limits assumed): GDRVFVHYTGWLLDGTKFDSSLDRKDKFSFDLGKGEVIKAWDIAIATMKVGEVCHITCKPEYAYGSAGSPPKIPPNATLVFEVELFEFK
Outline: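 Compounds titrated against FK1 domain of FKBP52 WT with fluorescent tracer F2, in duplicate; competition curves fitted to four-parameter logistic for IC50. Ki derived from exact competitive-binding equation using tracer Kd; selectivity expressed as Ki(FKBP51)/Ki(FKBP52).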

[2] = target: T2, FKBP51 (Homo sapiens, UniProt Q13451); experiment: Fluorescence polarization binding assay, FK1-domain of FKBP51WT with tracer F4; design: Purified FK1-domains of FKBP51WT (4.5 nM) with F4 (3 nM), FKBP52WT (400 nM) with F2 (20 nM); made in house; host or cells: E. coli BL21(DE3)pLysS; details: read-out: Affinity(Ki) for FKBP51
T2 sequence (Q13451 42-130 limits assumed): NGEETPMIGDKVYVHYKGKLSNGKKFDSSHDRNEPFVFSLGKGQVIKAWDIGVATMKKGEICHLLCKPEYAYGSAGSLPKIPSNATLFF
Outline: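 Competitive fluorescence polarization with tracer F4 and FKBP51 FK1 domain (wild type), compounds titrated by serial dilution from DMSO stock, run in duplicate. IC50 from four-parameter logistic fit; inhibition constants from an exact competitive-binding equation using tracer and inhibitor Kd values.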

[3] = FKBP52WT (400 nM) with F2 (20 nM), A series
[4] = FK1-domain of FKBP51WT (4.5 nM) with F4 (3 nM), A series

Row | Ki(FKBP51)/Ki(FKBP52) ([1]; compounds B01-C25) | Ki ([2]; compounds B01-C25) [µM] | Ki(FKBP51)/Ki(FKBP52) [1, 3] | Ki [2, 4] [µM] | SMILES
1 | +++ (>500 +++) | 0.1 to 1 |  |  | COc1cc([C@@H](C(=O)N2CCCC[C@H]2C(=O)OC(C)C)C2CCCCC2)cc(OC)c1OC [Compound C04, (S)-isopropyl 1-((S)-2-cyclohexyl-2-(3,4,5-trimethoxyphenyl)acetyl)piperidine-2-carboxylate]
2 | ++ (>50 ++) | 10 to 50 |  |  | CCNC(=O)[C@@H]1CCCCN1C(=O)[C@H](c1cc(OC)c(OC)c(OC)c1)C1CCCCC1 [Compound C05, (S)-1-((S)-2-cyclohexyl-2-(3,4,5-trimethoxyphenyl)acetyl)-N-ethylpiperidine-2-carboxamide]
3 | + (>5 +) | 10 to 50 |  |  | COc1cc([C@@H](C(=O)N2CCCC[C@H]2C(=O)O)C2CCCCC2)cc(OC)c1OC [Compound C06, (S)-1-((S)-2-cyclohexyl-2-(3,4,5-trimethoxyphenyl)acetyl)piperidine-2-carboxylic acid]
4 | ++ (>50 ++) | 10 to 50 |  |  | CC[C@H](C)OC(=O)[C@@H]1CCCCN1C(=O)[C@H](c1cc(OC)c(OC)c(OC)c1)C1CCCCC1 [Compound C07, (S)-(S)-sec-butyl-1-((S)-2-cyclohexyl-2-(3,4,5-trimethoxyphenyl)acetyl) piperidine-2-carboxylate]
5 | ++ (>50 ++) | 10 to 50 |  |  | CCC(CC)OC(=O)[C@@H]1CCCCN1C(=O)[C@H](c1cc(OC)c(OC)c(OC)c1)C1CCCCC1 [Compound C09, (S)-pentan-3-yl-1-((S)-2-cyclohexyl-2-(3,4,5-trimethoxyphenyl)acetyl)piperidine-2-carboxylate]
6 | +++ (>500 +++) | 1 to 10 |  |  | COc1cc([C@@H](C(=O)N2CCCC[C@H]2C(=O)OC(C)(C)C)C2CCCCC2)cc(OC)c1OC [Compound C10, (S)-tert-butyl-1-((S)-2-cyclohexyl-2-(3,4,5-trimethoxyphenyl)acetyl)piperidine-2-carboxylate]
7 | +++ (>500 +++) | 1 to 10 |  |  | COc1cc([C@@H](C(=O)N2CCCC[C@H]2C(=O)OC2(C)CCCC2)C2CCCCC2)cc(OC)c1OC [Compound C11, (S)-1-methylcyclopentyl-1-((S)-2-cyclohexyl-2-(3,4,5-trimethoxyphenyl)acetyl) piperidine-2-carboxylate]
8 | +++ (>500 +++) | 1 to 10 |  |  | COc1cc([C@@H](C(=O)N2CCCC[C@H]2C(=O)OC2CCOCC2)C2CCCCC2)cc(OC)c1OC [Compound C12, (S)-tetrahydro-2H-pyran-4-yl-1-((S)-2-cyclohexyl-2-(3,4,5-trimethoxyphenyl)acetyl)piperidine-2-carboxylate]
9 | +++ (>500 +++) | 1 to 10 |  |  | COc1cc([C@@H](C(=O)N2CCCC[C@H]2C(=O)OC2CCCC2)C2CCCCC2)cc(OC)c1OC [Compound C13, (S)-cyclopentyl-1-((S)-2-cyclohexyl-2-(3,4,5-trimethoxyphenyl)acetyl)piperidine-2-carboxylate]
10 | +++ (>500 +++) | 1 to 10 |  |  | COc1cc([C@@H](C(=O)N2CCCC[C@H]2C(=O)OC2CC=CC2)C2CCCCC2)cc(OC)c1OC [Compound C14, (S)-cyclopent-3-en-1-yl-1-((S)-2-cyclohexyl-2-(3,4,5-trimethoxyphenyl)acetyl) piperidine-2-carboxylate]
11 | ++ (>50 ++) | 10 to 50 |  |  | COc1cc([C@@H](C(=O)N2CCCC[C@H]2C(=O)OC2CCCCCC2)C2CCCCC2)cc(OC)c1OC [Compound C16, (S)-cycloheptyl-1-((S)-2-cyclohexyl-2-(3,4,5-trimethoxyphenyl)acetyl)piperidine-2-carboxylate]
12 | ++ (>50 ++) | 10 to 50 |  |  | C=CCOC(=O)[C@@H]1CCCCN1C(=O)[C@H](c1cc(OC)c(OC)c(OC)c1)C1CCCCC1 [Compound C17, (S)-allyl-1-((S)-2-cyclohexyl-2-(3,4,5-trimethoxyphenyl)acetyl)piperidine-2-carboxylate]
13 | ++ (>50 ++) | 1 to 10 |  |  | COCCOC(=O)[C@@H]1CCCCN1C(=O)[C@H](c1cc(OC)c(OC)c(OC)c1)C1CCCCC1 [Compound C18, (S)-2-methoxyethyl-1-((S)-2-cyclohexyl-2-(3,4,5-trimethoxyphenyl)acetyl) piperidine-2-carboxylate]
14 | ++ (>50 ++) | 1 to 10 |  |  | COc1cc([C@@H](C(=O)N2CCCC[C@H]2C(=O)OCCOCc2ccccc2)C2CCCCC2)cc(OC)c1OC [Compound C19, (S)-2-(benzyloxy)ethyl-1-((S)-2-cyclohexyl-2-(3,4,5-trimethoxyphenyl)acetyl) piperidine-2-carboxylate]
15 | +++ (>500 +++) | 1 to 10 |  |  | COc1cc([C@@H](C(=O)N2CCCC[C@H]2C(=O)OCCO)C2CCCCC2)cc(OC)c1OC [Compound C20, (S)-2-hydroxyethyl-1-((S)-2-cyclohexyl-2-(3,4,5-trimethoxyphenyl)acetyl)piperidine-2-carboxylate]
16 | ++ (>50 ++) | 1 to 10 |  |  | COc1cc([C@@H](C(=O)N2CCCC[C@H]2C(=O)OCCCOCc2ccccc2)C2CCCCC2)cc(OC)c1OC [Compound C21, (S)-3-(benzyloxy)propyl-1-((S)-2-cyclohexyl-2-(3,4,5-trimethoxyphenyl)acetyl) piperidine-2-carboxylate]
17 | +++ (>500 +++) | 1 to 10 |  |  | COCCCCOC(=O)[C@@H]1CCCCN1C(=O)[C@H](c1cc(OC)c(OC)c(OC)c1)C1CCCCC1 [Compound C23, (S)-4-methoxybutyl-1-((S)-2-cyclohexyl-2-(3,4,5-trimethoxyphenyl)acetyl) piperidine-2-carboxylate]
18 | +++ (>500 +++) | 1 to 10 |  |  | COc1cc([C@@H](C(=O)N2CCCC[C@H]2C(=O)O[C@H](C)COCc2ccccc2)C2CCCCC2)cc(OC)c1OC [Compound C24]
19 |  |  | not selective (<5 not selective) | 10 to 50 | C=CC[C@H](C(=O)N1CCCC[C@H]1C(=O)O[C@H](CCc1ccc(OC)c(OC)c1)c1cccc(OCC(=O)O)c1)c1cc(OC)c(OC)c(OC)c1 [Reference A01, 2-(3-((R)-3-(3,4-Dimethoxyphenyl)-1-(((S)-1-((S)-2-(3,4,5-trimethoxyphenyl)pent-4-enoyl)piperidine-2-carbonyl)oxy)propyl)phenoxy)acetic acid]
20 |  |  | not selective (<5 not selective) | 10 to 50 | COc1ccc(CC[C@@H](OC(=O)[C@@H]2CCCCN2C(=O)[C@@H](CC2CC2)c2cc(OC)c(OC)c(OC)c2)c2cccc(OCC(=O)O)c2)cc1OC [Reference A07, 2-(3-((R)-1-(((S)-1-((S)-3-cyclopropyl-2-(3,4,5-trimethoxyphenyl)propanoyl)piperidine-2-carbonyl)oxy)-3-(3,4-dimethoxyphenyl)propyl)phenoxy)acetic acid]
